Laboratory results as given in patent US6569631B1, “Microplate thermal shift assay for ligand development using 5-(4″dimethylaminophenyl)-2-(4′-phenyl)oxazole derivative fluorescent dyes” (3-Dimensional Pharmaceuticals, Inc., priority 1998, dated 2003).
Where two headings read alike, the source gives them in different places. Ends that are not written are not given here.

Key:
thrombin [1] = target: T1, thrombin (Homo sapiens, UniProt P00734); experiment: Fluorescence signal of reporter dyes in 384-well thermal unfolding of thrombin; design: A stock human α-thrombin solution (1.56 mg/mL) from Enzyme Research Labs; purchased Enzyme Research Labs; conditions: 100 μM dye; 1 μM thrombin; 500+/−25 nm bandpass filter
Procedure: A 1 μM thrombin solution was mixed with 5-(4″-dimethylaminophenyl)-2-(4′-phenyl)oxazole sulfonate dye to yield a final concentration of 100 μM 5-(4″-dimethylaminophenyl)-2-(4′-phenyl)oxazole sulfonate. This solution was pipetted into all the wells of a 384-well black thermocycler plate with a final volume of 4 μL per well, and 3 μL of mineral oil was then added to each well. The fluorescence signal from each well was recorded in a closed, black-walld metal box using a cooled CCD camera (SenSys, Photometrix, Inc.) equipped with a 500+/−25 nm bandpass filter. An identical experiment was performed separately, using the same instrument, camera, and filters, except that a final concentration of 100 μM 1,8-ANS was used in place of 5-(4″-dimethylaminophenyl)-2-(4′-phenyl)oxazole sulfonate as the reporter dye.
The ratio of signals from 5-(4″-dimethylaminophenyl)-2-(4′-phenyl)oxazole sulfonate and 1,8-ANS was calculated by averaging the signals of all 384 wells on each plate, and dividing the average signal from 1,8-ANS into that for 5-(4″-dimethylaminophenyl)-2-(4′-phenyl)oxazole sulfonate.

[2] = target: T2, chicken muscle pyruvate kinase (Gallus gallus, UniProt P00548); experiment: Fluorescence signal of reporter dyes on thermal unfolding of pyruvate kinase; conditions: wavelengths above 480 nm; excitation 370 nm
T2 construct: purchased Sigma Chemical Co. P6406
T2 sequence (P00548 whole entry): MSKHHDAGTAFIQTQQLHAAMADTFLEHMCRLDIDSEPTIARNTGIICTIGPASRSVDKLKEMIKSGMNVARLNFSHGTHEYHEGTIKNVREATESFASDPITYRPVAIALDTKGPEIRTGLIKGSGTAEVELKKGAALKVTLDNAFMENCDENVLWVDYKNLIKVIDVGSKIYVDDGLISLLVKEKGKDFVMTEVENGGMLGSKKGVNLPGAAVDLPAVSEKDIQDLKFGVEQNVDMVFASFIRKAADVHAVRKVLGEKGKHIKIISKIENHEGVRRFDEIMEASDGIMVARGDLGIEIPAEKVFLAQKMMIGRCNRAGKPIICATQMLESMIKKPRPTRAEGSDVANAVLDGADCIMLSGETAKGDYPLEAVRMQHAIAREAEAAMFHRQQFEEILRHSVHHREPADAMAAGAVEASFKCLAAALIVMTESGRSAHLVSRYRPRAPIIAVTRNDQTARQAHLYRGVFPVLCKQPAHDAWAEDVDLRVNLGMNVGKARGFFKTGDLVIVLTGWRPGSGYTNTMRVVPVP
Procedure: A 0.2 mg/mL solution of chicken muscle pyruvate kinase (Sigma Chemical Co., catalog # P6406) was incubated with either 10 mM 1-anilinonaph-thalene-8-sulfonate (1,8-ANS) (FIG. 44, open squares) or 10 mM 5-(4″-dimethylaminophenyl)-2-(4′-phenyl)oxazole sulfonate (Molecular Probes catalogue no. D-12800) (FIG. 44, closed squares) in a 500 μL four-sided quartz cuvette. Fluorescence spectra were recorded using a spectrofluorimeter (Florolog, SPEX/ISA), with the excitation monochromator set to 370 nm, and the excitation and emission bandpass slit widths set at 1 nm, The instrument was operated in front-face collection mode, so that fluorescence was collected from the same face of the cuvette that was illuminated by the exciting light source. Emission spectra of native protein+dye were recorded after mixing the protein and dye solutions at room temperature. Emission spectra of denatured protein and fluorescence dye were recorded after the protein/dye solutions were heated to 75° C. for 2 minutes, and then cooled to room temperature immediately prior to data collection. The spectra shown in FIG. 44 are difference spectra that were calculated by subtracting the native protein fluorescence from the denatured protein fluorescence for each dye at 25° C. […]

human α-thrombin = target: T3, human α-thrombin (Homo sapiens, UniProt P00734); experiment: Microplate thermal shift screen of biochemical conditions, thrombin stability; conditions: NaCl concentration increased from 0 to 0.5 M
T3 construct: A stock human α-thrombin solution (1.56 mg/mL) from Enzyme Research Labs; purchased Enzyme Research Labs
Procedure: The microplate thermal shift assay was used, with four different fluorophores, to simultaneously screen the effects of multiple pH values, sodium chloride concentrations, and reduction-oxidation compounds on human α-thrombin stability. Thrombin solution was diluted to 1 μM in 50 mM Hepes, pH 7.5, NaCl at either 0.1 M or 0.5 M, 10 mM EDTA, 10 mM CaCl2, 10 mM dithiothreitol, […], and 100 μM 1,8-ANS, 10% (v/v) glycerol, or 0.1% (w/v) polyethylene glycol (PEG) 6000. Reaction volume was 100 μL.
Using equation (1), it is possible to estimate the NaCl binding to be ˜6 mM near the Tm (53° C.) in 50 mM Hepes pH 8.0 buffer (zero and 0.10 M NaCl).

D(II) FGF receptor 1 = experiment: Microplate thermal shift screen of biochemical conditions, D(II) FGF receptor 1 stability; design: species or system human; conditions: NaCl concentration increased from 0.1 to 0.5 M
Procedure: The microplate thermal shift assay was used to simultaneously screen the effects of multiple biochemical conditions on D(II) FGF receptor 1 stability. The assays were performed by mixing 1 μL of D(II) FGFR1 (from a 500 μM concentrated stock in 50 mM HEPES pH 7.5) with 4 μL of each biochemical condition in wells of a 96-well polycarbonate microtiter plate. Final protein concentration after mixing was 100 μM and final 1,8-ANS concentration was 200 μM. Biochemical conditions were tested as follows: The pH's tested were 5 (Na acetate), 6 (MES), 7 (MOPS), 8 (HEPES), and 9 (CHES), with final buffer concentrations of 50 mM.
The salt concentrations tested were 0.1 or 0.5 M NaCl. Additives were tested in 50 mM MOPS, pH 7, 0.1 M NaCl, at final concentrations of 1 mM (EDTA, dithiothreitol), 10 mM (CaCl2, MgCl2, MgSO4, NiSO4),50 mM (arginine), 100 mM ((NH4)2SO4, LiSO4, Na2SO4, ZnSO4), 5% w/v (polyethylene glycol 6000), and 10% v/v glycerol.
Thermal denaturation profiles were generated as previously described for thrombin, aFGF, Factor D, and Factor Xa, by incremental heating of the microplate followed by a fluorescence reading after each temperature increase. Data were analyzed by non-linear least squares fitting as described previously.

thrombin [3] = target: T1, thrombin; conditions: 5 mM Tris buffer pH 8.0, 0.1% PEG, 25° C.; read-out: Kd of the Na+ binding site; cited from earlier work
[4] = target: T4, acidic fibroblast growth factor (aFGF) (Homo sapiens, UniProt P05230); experiment: Microplate thermal shift assay for ligands binding to aFGF, turbidity signal; conditions: for ΔTm: relative to aFGF alone (317.15 °K); for Tm: turbidity signal, aFGF 0.25 mg/mL, ligand 47-200 μM
T4 construct: host or cells: E. coli
T4 sequence (P05230 whole entry, species assumed): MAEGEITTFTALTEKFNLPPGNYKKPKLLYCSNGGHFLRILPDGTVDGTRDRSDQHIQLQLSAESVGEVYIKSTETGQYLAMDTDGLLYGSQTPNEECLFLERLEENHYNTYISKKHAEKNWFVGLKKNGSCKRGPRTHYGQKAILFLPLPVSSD
Text: The second therapeutic receptor tested in the microplate thermal shift assay was acidic fibroblast growth factor (aFGF), a growth factor that plays a key role in angiogenesis (Folkman, J. et al., J. Biol. Chem. 267:1.0931-10934 (1992)). A synthetic gene for this protein was purchased from R&D Systems (Minneapolis, Minn.), and was cloned and expressed in E. coli using methods similar to those described for basic fibroblast growth factor (bFGF) (Thompson, L. D. et al., Biochemistry 33:3831-3840 (1994); Pantoliano, M. W. et al., Biochemistry 33:10229-10248 (1994); Springer, B. A. et al., J. Biol. Chem. 269:26879-26884 (1994)). Recombinant aFGF was then purified by heparin-sepharose affinity chromatography as described (Thompson, L. D. et al., Biochemistry 33:3831-3840 (1994)). aFGF is also known to bind heparin/heparan, which is a cofactor for mitogenic activity. […] A microplate thermal assay of these compounds was set up in a way similar to that described above for human α-thrombin. […] The affinity constants covered a fairly broad range of binding affinities, with pentosan PSO4 showing the highest affinity.

[5] = target: T5, heparin binding site of human α-thrombin (Homo sapiens, UniProt P00734); experiment: Microplate thermal shift assay, ligands binding to the heparin binding site, turbidity signal
T5 construct: A stock human α-thrombin solution (1.56 mg/mL) from Enzyme Research Labs; purchased Enzyme Research Labs
Text: Assays for ligands that bind to the heparin binding site of human α-thrombin are more difficult to perform than assays for ligands that bind to the active site of human α-thrombin. At the heparin binding site, no substrate is hydrolyzed, so no spectrophotometric signal can be amplified for instrumental detection. Heparin activity is usually estimated in biological clotting time assays. […] Thus, heparin binding to human α-thrombin represents the kind of challenge encountered with the vast majority of non-enzyme receptor/ligand binding events, which are commonly observed for hormone/receptor interactions, repressor/DNA interactions, neurotransmitter/receptor interactions, etc. Several heparin-like sulfated oligosaccharides and sulfated naphthalene compounds were assayed by the microplate thermal shift assay. Using the thermal shift assay, it was possible to use a single compound per well to quickly rank the compounds in order of increasing binding affinity, with Kd's ranging over three orders of magnitude (see Table 4). Like the experiment in Example 1, the thermal shift assay results agreed closely with the results obtained through an alternative method, which required a series of laborious (15 to 20 single determinations) fluorescence quench assays over a wide range of concentrations of low MW heparin (Olson, S. T. et al., J. Biol. Chem. 266:6342-6352 (1991)).

D(II) FGFR1 = target: T6, D(II) FGFR1 (Homo sapiens, UniProt P11362); experiment: Miniaturized (10 μL) microplate thermal shift assay of D(II) FGFR1; type: binding; conditions: aprosulate 300 μM
T6 construct: made in house
T6 sequence (P11362 158-246 limits assumed): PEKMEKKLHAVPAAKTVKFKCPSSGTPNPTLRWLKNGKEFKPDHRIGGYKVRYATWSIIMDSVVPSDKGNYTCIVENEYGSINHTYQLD
Procedure: Recombinant D(II) FGFR1 was purified from inclusion bodies and purified by affinity chromatography on heparin sepharose. A stock solution of D(II) FGFR1 (15 mg/mL; 1.1 mM) was diluted to 50 μM in assay buffer (50 mM Hepes, pH 7.5, 0.1 M NaCl). The assay volume was 10 μL and the concentration of 1,8-ANS was 250 μM.

[6] = system: human urokinase-type plasminogen activator (u-PA); experiment: Miniaturized microplate thermal shift assay of urokinase; type: binding; conditions: 5 μL; MOPS pH 7, NaCl, 1,8-ANS
Text: Another target molecule analyzed was human urokinase-type plasminogen activator (u-PA). U-PA enzymatically converts plasminogen into the active protease plasmin. U-PA is involved in tissue remodeling, cellular migration and metastases. The gene for u-PA was obtained from ATCC (Rockville, Md.) and modified to appropriately express active enzyme in E. coli. u-PA was cloned, overexpressed in E. coli, and purified using procedures similar to those described by Winkler et al. (Biochemistry 25:4041-4045 (1986)). […] The experiment was performed in the miniaturized format in 5 μL well volume. One μL of concentrated CMK-u-PA (13 g/L, 371.4 μM) was added to 4 μL of 62.5 mM MOPS, pH 7, 125 mM NaCl, and 250 μM 1,8-ANS, in multiple wells of a 96-well polycarbonate V-bottom microtiter plate. A thermal denaturation curve was generated as previously described for thrombin, aFGF, D(II)FGFR1, Factor D, and Factor Xa, by incremental heating of the microplate followed by a fluorescence reading after each temperature increase.

CN(C)c1ccc(-c2cnc(-c3ccc(S(=O)(=O)O)cc3)o2)cc1 [5-(4″-dimethylaminophenyl)-2-(4′-phenyl)oxazole sulfonate]
signal relative to 1,8-ANS, average of 384 wells (thrombin [1]): 4.25 times | fluorescence signal relative to 1,8-ANS on unfolding of pyruvate kinase [2]: approximately 3.2 fold

[Cl-].[Na+] [NaCl, sodium chloride]
ΔTm (human α-thrombin): about 12 °C | ΔTm (D(II) FGF receptor 1): about 5 °C

[Na+] [Na^+]
Kd (thrombin [3]): 30000 ± 3000 µM

Cc1ccc(C(=O)Nc2ccc(S(=O)(=O)O)c3cc(S(=O)(=O)O)cc(S(=O)(=O)O)c23)cc1NC(=O)c1cccc(NC(=O)Nc2cccc(C(=O)Nc3cc(C(=O)Nc4ccc(S(=O)(=O)O)c5cc(S(=O)(=O)O)cc(S(=O)(=O)O)c45)ccc3C)c2)c1 [Suramin, suramin]
ΔTm [4]: 13.0 °K | Tm [4]: 330.15 °K | ΔTm ([5]; relative to thrombin alone (329.15 °K)): 11.0 °K | affinity at Tm higher than the affinity of heparin 5000 ([5]; thermal shift assay, Table 4): 5700 fold | Tm ([5]; turbidity signal, 11 μM thrombin, ligand 40-102 μM): 340.15 °K

O=C(NCCCNC(=O)[C@H](OS(=O)(=O)O)[C@@H](OS(=O)(=O)O)[C@H](O[C@@H]1O[C@H](COS(=O)(=O)O)[C@H](OS(=O)(=O)O)[C@H](OS(=O)(=O)O)[C@H]1OS(=O)(=O)O)[C@@H](COS(=O)(=O)O)OS(=O)(=O)O)[C@H](OS(=O)(=O)O)[C@@H](OS(=O)(=O)O)[C@H](O[C@@H]1O[C@H](COS(=O)(=O)O)[C@H](OS(=O)(=O)O)[C@H](OS(=O)(=O)O)[C@H]1OS(=O)(=O)O)[C@@H](COS(=O)(=O)O)OS(=O)(=O)O [aprosulate]
unfolding transition (Tm) in the presence of ligand (D(II) FGFR1): about 320 K | increase of the unfolding transition (D(II) FGFR1; D(II) FGFR1 50 μM, 10 μL): about 8 K

EEEEEEEE
Kd ([4]; equation (1), estimated ΔHu 60.0 kcal/mole, ΔCpu 0.95 kcal/mole-°K, read-out: Kd at Tm): 10.1 µM | Kd ([4]; estimate by equation (3), ΔHL −10.0 kcal/mole, read-out: Kd at 298° K Observed): 3.04 µM | ΔTm [4]: 5.0 °K | Tm [4]: 322.15 °K

glu-gly-arg-chloromethylketone [CMK]
Tm of the CMK-u-PA complex [6]: 81 °C
